45 compounds from the SangsterLogP compilation can be followed below.

A short description of data set [1]: method code SF-RC, from DOI: 10.1002/jlcr.1525.
Data set [2] can be described thus: method code SF-AS, from DOI: 10.1002/chin.198419165, PMID: 6653771. The note with it: pH 2.5.
Data set [3] in a line: method code SF-AS, from DOI: 10.1248/cpb.39.1217.
Data set [4] is described as follows: method code SF-AS, from DOI: 10.1002/jps.2600711105. The note with it: pH 7.4.
Data set [5] is described as follows: method code SF, from Korenman, I.; Polumestnaya, I. (1982). Principles of interfacial distribution of certain substituted naphthalenes. Zh. Prikl. Khim., 55(2)364-367.
Data set [6] in a line: method code SF-AS, from DOI: 10.1021/jm00297a026, PMID: 5441130.
Experiment in data set [7]: not given
This is another data set of the same source.

Data set [8] can be described thus: method code SF-AS, from Korenman, Y.; Pazynin, T. (1972). Distribution of nitrosonaphthols between organic solvents and water. J. anal. chem. USSR, 27(4)723-725. The note with it: pH 2.0.
The nature of data set [9]: method code SF-CR+AS, from Korenman, I.; Tishchenko, M.; Kombarova, A. (1977). Distribution of dihydroxynaphthalenes between higher alcohols and water. Zh. Prikl. Khim., 50(4)899-901. The note with it: pH 2.0.
Data set [10] in a line: method code SF-AS, from DOI: 10.1081/jlc-100100410. The note with it: pH 4.0.
Data set [11] can be described thus: method code SF, from DOI: 10.1021/jm00002a007, PMID: 7830268.
A short description of data set [12]: method code SF-GLC, from DOI: 10.1016/j.chemosphere.2004.08.061, PMID: 15519382.
Data set [13] is described as follows: method code SF-AS, from DOI: 10.1271/bbb1961.46.2755.
A short description of data set [14]: method code SF-HPLC, from DOI: 10.1016/0378-5173(85)90011-0.
Data set [15] can be described thus: method code SF-RC, from Lázníček, M., Waisser, K., Květina, J., Beňo, P., & Tichý, M. (1985). QSAR methods in pharmacokinetic analysis. QSAR in Toxicology and Xenobiochemistry, 249-256. As to conditions: pH 1.0.
Experiment in data set [16]: not given
This is another data set of the same source.

Data set [17] can be described thus: method code SF-HPLC, from DOI: 10.1023/a:1007522626070, PMID: 10714611. As to conditions: pH 7.4.
A short description of data set [18]: method code SF-HPLC, from DOI: 10.1248/bpb.16.154, PMID: 8364451.
Data set [19] can be described thus: method code SF-AS, from DOI: 10.1002/jhrc.1240040906. The note with it: pH 5.0.
Data set [20] in a line: method code SF, from DOI: 10.1021/ac00105a018.
Experiment in data set [21]: not given
This is another data set of the same source.

Data set [22] can be described thus: method code SF-AS, from DOI: 10.1016/0378-5173(82)90005-9. The note with it: pH 3.0.
A short description of data set [23]: method code SF-CR+AS, from Korenman, I.; Lineva, S.; Gezikova, N. (1978). Extraction of naphthol-sulfonic acids from aqueous solution. Zh. Prikl. Khim., 51(4)869-871.
Data set [24] in a line: method code …, from Korenman, I.; Polumestnaya, I.; Mezentseva, P. (1979). Investigations of the relationship of extraction of 1-naphthol and some of its derivatives by the method of correlation equations. Zh. Prikl. …. The note with it: pH 2.0.
A short description of data set [25]: method code SF-AS, from PMID: 6692390. As to conditions: pH 4.0.
A short description of data set [26]: method code SF-AS, from DOI: 10.1016/0005-2744(69)90103-x, PMID: 4387594.
A short description of data set [27]: method code SF-HPLC, from DOI: 10.1021/jm701549s, PMID: 18558667. As to conditions: pH 7.4.
The nature of data set [28]: method code SF-RC, from DOI: 10.1016/j.apradiso.2013.03.021, PMID: 23602704. The note with it: pH 7.4.
Experiment in data set [29]: not given
The source holds these as a separate data set.

The nature of data set [30]: method code SF, from DOI: 10.1246/bcsj.60.4357.
Experiment in data set [31]: not given
The source holds these as a separate data set.

Experiment in data set [32]: not given
This is another data set of the same source.

The nature of data set [33]: method code SF-AS, from DOI: 10.1016/s0006-2952(02)01074-2, PMID: 12392818. The note with it: pH 7.4.
The nature of data set [34]: method code SF-AS, from DOI: 10.1016/0009-2797(77)90097-7, PMID: 407012. As to conditions: pH 7.0.
Data set [35] is described as follows: method code SF-ESR, from DOI: 10.1111/1523-1747.ep12319780, PMID: 2551971. As to conditions: pH 7.0.
The nature of data set [36]: method code SF, from DOI: 10.1023/a:1018952108327, PMID: 7855051. The note with it: pH 5.0.
Experiment in data set [37]: not given
The source holds these as a separate data set.

Data set [38] in a line: method code SF-HPLC, from DOI: 10.1002/ps.2780130506.
The nature of data set [39]: method code SF-HPLC, from DOI: 10.1111/j.2042-7158.1995.tb05807.x, PMID: 7791035. As to conditions: pH 7.0.
A short description of data set [40]: method code SF-HPLC, from DOI: 10.1016/0378-5173(84)90193-5. As to conditions: pH 4.0.
Experiment in data set [41]: not given
This is another data set of the same source.

Data set [42] can be described thus: method code SF-AS, from DOI: 10.1248/cpb.36.1393. The note with it: pH 7.4.
A short description of data set [43]: method code SF-RC, from DOI: 10.1016/0006-2952(75)90159-8, PMID: 1168477.
A short description of data set [44]: method code SF-AS, from DOI: 10.1016/s0378-5173(98)00405-0, PMID: 10089287. The note with it: pH 7.4.

Compound `O=C(O)CN(CCN1CCN=C1[N+](=O)[O-])CC(=O)O` had a logP in data set [1] of -0.82.
For the compound `O=C(O)c1ccccc1NCCO`, in [2], the logD is 1.16.
Turning to `Cc1nccnc1CC(C)C`, the logP in [3] stood at 1.96.
In turn, `CCCCC1C(=O)NC(=O)N(C)C1=O` (stereo not given) gave a logP of 1.1.
On to `CC(=O)c1nc([N+](=O)[O-])n(CC(C)O)c1C` (stereo not given), for which the logD in [4] stood at 0.37.
Consider `O=S(=O)(O)c1cc(O)c2ccccc2c1`, for which the logP in [5] was -0.18.
In turn, `CCCCn1cnc2c(N)ncnc21` gave a logP in data set [6] of 1.25.
In the case of `O=c1[nH]c(-c2ccccc2)nc2nn[nH]c12`, in [7], the logP came out at 1.27.
As to `O=Nc1c(O)ccc2ccccc12`, the logD in data set [8] came to 2.28.
Compound `Oc1cc(O)c2ccccc2c1` returned a logD in [9] of 1.97.
In [10], `Nc1ccc(S(=O)(=O)Nc2ccc(Cl)nn2)cc1` returned a logD of 0.86.
In the case of `CCOP(=O)(OCC)C1(C)CCC=[N+]1[O-]` (stereo not given), the logP in [11] was -1.22.
`Cn1c(Cl)c(Br)c(Cl)c1-c1c(Br)c(Br)c(Cl)n1C` came in with a logP in data set [12] of 6.5.
In the case of `O=C1COC(=O)N1c1ccccc1`, in data set [13], the logP was found to be 0.93.
Turning to `CCCC(=O)n1ncc2c(=O)[nH]cnc21`, the logP in data set [14] worked out at 0.85.
As to `O=C(O)CCc1ccccc1I`, the logD in data set [15] was determined as 2.47.
In data set [16], `Clc1ccc2ccc(Cl)cc2c1` had a logP of 4.81.
Compound `CCn1nnc(C2=CCC[N+](C)([O-])C2)n1` (stereo not given) had a logD in data set [17] of -1.5.
In turn, `O=C(O)CNC(=O)c1cc(O)ccc1O` returned a logP in data set [18] of 0.28.
Compound `NC(=O)c1cnc2n(c1=O)CCCC2` came in with a logD in [19] of -0.38.
With `CCCc1ccc(O)cc1`, the logP in [20] turned out to be 3.
In data set [21], `ClC1=C(Cl)C2(Cl)C3C(Cl)C=CC3C1(Cl)C2(Cl)Cl` (stereo not given) gave a logP of 5.58.
As for `O=C1NC(=S)NC(=O)C12CCCCC2`, in data set [22], the logD is 1.78.
For the compound `O=S(=O)(O)c1cccc2c(O)cccc12`, in data set [23], the logP is -0.17.
In the case of `O=Nc1c(Br)cc2ccccc2c1O`, in data set [24], the logD turned out to be 2.93.
In data set [25], `COc1ccc(NC(=O)N(C)N=O)cc1` displayed a logD of 0.64.
The compound `CCCNc1ccccc1` came in with a logP in data set [26] of 2.45.
Consider `CN(C)C(=O)c1ccc(Br)cc1`, for which the logD in data set [27] came out at 1.83.
Consider `Nc1nc(=O)n([C@H]2C[C@H](O)[C@@H](CO)O2)cc1I`, for which the logD in data set [28] was -0.94.
`Nc1ccc([N+](=O)[O-])c2ccccc12` had a logP in [29] of 1.77.
In data set [30], `CC(C)c1cc([N+](=O)[O-])cc([N+](=O)[O-])c1O` registered a logP of 3.1.
Regarding `COC(=O)Nc1nc2ccccc2[nH]1`, the logP in [31] came out at 1.75.
For the compound `NC1CC1c1ccccc1` (stereo not given), the logP in data set [32] was found to be 1.49.
On to `OC1CCOc2ccccc21` (stereo not given), for which the logD in data set [33] was determined as 1.31.
Consider `CN(C)c1nc(N(C)C)nc(N(C)O)n1`, for which the logD in [34] came to 1.61.
With `CC1(C)CCC(C)(C)N1[O]`, the logD in data set [35] was 1.
In the case of `CN1C(CCl)Nc2cc(Cl)c(S(N)(=O)=O)cc2S1(=O)=O` (stereo not given), the logD in data set [36] stood at 0.6.
Compound `Clc1ccc2ccccc2c1` gave a logP in [37] of 4.07.
Compound `CNC(=O)ON=Cc1ccc(Cl)c(Cl)c1` returned a logP in data set [38] of 2.89.
For the compound `NC(=O)NC(=O)Cc1ccccc1`, the logD in data set [39] was 0.66.
`O=c1[nH]cc(F)c(=O)n1Oc1ccccc1` gave a logD in data set [40] of 0.8.
Take `Cn1c(C(F)(F)F)nc2ccccc21`: in data set [41], the logP is 3.98.
The compound `[O-][n+]1ccc(Cl)c2ccc(Cl)cc21` came in with a logD in [42] of 1.85.
With `CCCN(C(C)=O)C(C)C`, the logP in data set [43] turned out to be 1.48.
`Cc1cc(=O)n2ccccc2n1` returned a logD in data set [44] of 0.6.
